A word on the IC50: it is the concentration that gives 50% inhibition. What is called inhibition is the percentage by which the read-out fell short of the control. Broadly, the CC50 is the concentration that lowers cell viability or growth by half. Read a low CC50 as greater toxicity to the cells.

In data set [1] the test system is Human immunodeficiency virus 1. Briefly: Antiviral activity against HIV1 3B infected human TZM-bl cells assessed as inhibition of viral replication by luciferase reporter assay. It counts as functional, organism-based. (In general: Reporter assays use an easily measured gene product as a stand-in for the process of interest.)
In data set [2] the test system is Human immunodeficiency virus 1. As to the kind of experiment: Antiviral activity against HIV1 3B infected human TZM-bl cells assessed as inhibition of viral replication at 10 uM treated 8 hrs after viral infection by luciferase reporter assay. In kind it is functional, organism-based.
The nature of data set [3]: Cytotoxicity in human TZM-bl cells by MTT assay. In kind it is cell-based. (Tetrazolium dyes change colour on reduction, which living cells bring about.)
A short description of data set [4]: Selectivity index, ratio of CC50 for human TZM-bl cells to IC50 for HIV1 3B. In kind it is functional.
The next data set has as its target Albumin (Homo sapiens, UniProt P02768). Briefly: Binding affinity to human serum albumin by fluorescence quenching assay. In kind it is ADME. The following applies: isolated protein.
In data set [5] the test system is Human immunodeficiency virus 1. As to the kind of experiment: Antiviral activity against HIV1 3B infected human TZM-bl cells assessed as inhibition of viral replication at 10 uM treated immediately after infection by luciferase reporter assay. In kind it is functional, organism-based.
Data set [6] concerns Human immunodeficiency virus 1. Briefly: Antiviral activity against HIV1 3B infected human TZM-bl cells assessed as inhibition of viral replication at 10 uM treated 2 hrs after viral infection by luciferase reporter assay. It counts as functional, organism-based.
In another data set the test system is Influenza A virus. Briefly: Antiviral activity against Influenza A virus (A/Vietnam/1194/2004(H5N1)) infected in MDCK cells assessed as inhibition of viral replication by plaque reduction assay. It counts as functional, organism-based. On the technique in general: Plaques are areas of infected cells; plaque reduction assays count them against a control.
The nature of data set [7]: Cytotoxicity against MDCK cells by MTT assay. In kind it is cell-based, Canis lupus familiaris. The following applies: dog.
A short description of data set [8]: Selectivity index, ratio of CC50 for MDCK cells to IC50 for Influenza A virus (A/Vietnam/1194/2004(H5N1)). In kind it is functional.
For data set [9], the target named is Neuraminidase (Influenza A virus) (UniProt B4URF0). Briefly: Inhibition of Influenza A virus neuraminidase up to 10 uM.
Sequence of Neuraminidase (Influenza A virus) (B4URF0 as listed by the source): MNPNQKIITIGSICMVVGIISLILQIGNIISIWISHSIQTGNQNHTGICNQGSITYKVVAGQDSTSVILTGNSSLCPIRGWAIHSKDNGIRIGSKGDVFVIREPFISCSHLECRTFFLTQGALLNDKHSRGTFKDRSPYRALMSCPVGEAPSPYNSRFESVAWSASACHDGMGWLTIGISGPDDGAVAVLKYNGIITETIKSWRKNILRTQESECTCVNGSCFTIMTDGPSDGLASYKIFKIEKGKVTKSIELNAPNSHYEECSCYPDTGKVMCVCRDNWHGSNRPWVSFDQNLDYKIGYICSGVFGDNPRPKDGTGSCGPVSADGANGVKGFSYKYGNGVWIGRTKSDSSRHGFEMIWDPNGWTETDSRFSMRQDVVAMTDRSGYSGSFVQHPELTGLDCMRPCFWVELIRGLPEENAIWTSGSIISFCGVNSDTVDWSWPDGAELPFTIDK
For data set [10], the target named is Human immunodeficiency virus type 1 reverse transcriptase (Human immunodeficiency virus 1) (UniProt Q72547). Briefly: Inhibition of HIV1 reverse transcriptase activity at 20 ug/ml.
Data set [11] shares this target. As to the kind of experiment: Inhibition of HIV1 reverse transcriptase activity at 4 ug/ml.
For data set [12] the target is unchanged. Briefly: Inhibition of HIV1 reverse transcriptase activity at 0.8 ug/ml.
For data set [13] the target is unchanged. As to the kind of experiment: Inhibition of HIV1 reverse transcriptase activity.
Where [14] appears, read: Human immunodeficiency virus 1, 3B, TZM-bl, read-out: IC50.

The source made the active and inactive calls. No cut-off for these calls is given here.

Sequence of Albumin (P02768 whole entry): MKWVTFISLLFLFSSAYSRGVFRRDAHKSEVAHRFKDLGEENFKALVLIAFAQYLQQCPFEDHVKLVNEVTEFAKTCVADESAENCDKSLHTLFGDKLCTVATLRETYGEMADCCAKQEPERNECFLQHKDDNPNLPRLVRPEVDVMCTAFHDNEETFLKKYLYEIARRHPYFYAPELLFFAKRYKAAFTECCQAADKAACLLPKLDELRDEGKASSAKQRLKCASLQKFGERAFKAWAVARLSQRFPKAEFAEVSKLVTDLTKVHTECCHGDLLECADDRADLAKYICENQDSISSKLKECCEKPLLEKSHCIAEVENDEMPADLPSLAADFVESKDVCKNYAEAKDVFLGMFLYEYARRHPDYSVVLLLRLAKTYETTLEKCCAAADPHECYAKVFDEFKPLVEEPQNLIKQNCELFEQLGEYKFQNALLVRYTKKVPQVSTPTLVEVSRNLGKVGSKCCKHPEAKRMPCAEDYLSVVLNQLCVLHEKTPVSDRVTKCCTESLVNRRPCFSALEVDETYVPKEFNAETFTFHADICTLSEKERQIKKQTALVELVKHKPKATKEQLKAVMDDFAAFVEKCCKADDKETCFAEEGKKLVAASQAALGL

In the case of `Cc1cn([C@H]2C[C@H](N=[N+]=[N-])[C@@H](CO)O2)c(=O)[nH]c1=O` [ZIDOVUDINE], the IC50 in data set [1] (setting [14]) stood at 0.0028 µM. Further, the inhibition entry in data set [2] was “Active”.
As to `Cc1cc2c(c(O)c1-c1c(C)cc3c(c1O)/C(=C/N[C@@H](Cc1c[nH]c4ccccc14)C(=O)[O-])C(=O)C(O)=C3C(C)C)/C(=C/N[C@@H](Cc1c[nH]c3ccccc13)C(=O)[O-])C(=O)C(O)=C2C(C)C.[Na+].[Na+]`, the IC50 in data set [1] (setting [14]) is 0.99 µM; with Influenza A virus, 0.28 µM. For the same compound, the CC50 in [3] is 48 µM; in data set [7] it was > 35.7 µM. For the same compound, the “Ratio CC50/IC50” value in data set [4] is given as 48.43; in [8], >127.46. The compound also showed a Ka at Albumin of 9.2747 ×10⁴ L/mol. Further, the inhibition entry in data set [5] was “Active”. Besides, the inhibition result in [6] and in data set [9] was “inactive” throughout.
Take `Cc1cc2c(c(O)c1-c1c(C)cc3c(c1O)/C(=C/N[C@@H](C)C(=O)[O-])C(=O)C(O)=C3C(C)C)/C(=C/N[C@@H](C)C(=O)[O-])C(=O)C(O)=C2C(C)C.[Na+].[Na+]`: the IC50 in [1] (setting [14]) was 1.22 µM; with Influenza A virus, 0.87 µM. In addition, the CC50 was 56.2 µM in data set [3] and > 47.3 µM in data set [7]. The entries for the “Ratio CC50/IC50” value in [4] and in [8] were 46.09 and >54.41, respectively. On Albumin, this compound had a Ka of 1.0392 ×10⁵ L/mol. Further, the inhibition result in data set [5] is “Active”. Besides, the inhibition result in data set [6] is “inactive”.
As to `Cc1cc2c(c(O)c1-c1c(C)cc3c(c1O)/C(=C/N[C@H](C(=O)[O-])C(C)C)C(=O)C(O)=C3C(C)C)/C(=C/N[C@H](C(=O)[O-])C(C)C)C(=O)C(O)=C2C(C)C.[Na+].[Na+]`, the figures for the IC50 (in [1] (setting [14]); in the data set with Influenza A virus) were 1.14 µM and 1.78 µM, respectively. Moreover, the CC50 was 70.3 µM in data set [3] and > 43.9 µM in data set [7]. Also, the entries for the “Ratio CC50/IC50” value in data set [4] and in data set [8] were 61.68 and >24.64, respectively. The compound further came in with a Ka on Albumin of 2.114 ×10⁵ L/mol. The inhibition entry in [5] is “Active”. The inhibition result in data set [6] was “inactive”.
Consider `Cc1cc2c(c(O)c1-c1c(C)cc3c(c1O)/C(=C/NCCCCC(=O)[O-])C(=O)C(O)=C3C(C)C)/C(=C/NCCCCC(=O)[O-])C(=O)C(O)=C2C(C)C.[Na+].[Na+]`, for which the values for the IC50 (in data set [1] (setting [14]); in the data set on Influenza A virus) were 1.71 µM and 19.5 µM, respectively. Further, the CC50 was 32.9 µM in data set [3] and > 43.8 µM in [7]. Further, the “Ratio CC50/IC50” value is 19.25 in [4] and >2.25 in data set [8]. The Ka on Albumin is 2.4288 ×10⁴ L/mol.
Regarding `Cc1cc2c(c(O)c1-c1c(C)cc3c(c1O)/C(=C/NCCCCCC(=O)[O-])C(=O)C(O)=C3C(C)C)/C(=C/NCCCCCC(=O)[O-])C(=O)C(O)=C2C(C)C.[Na+].[Na+]`, the IC50 in [1] (setting [14]) was found to be 2.09 µM; in the data set on Influenza A virus, 42.3 µM. The CC50 in data set [3] was 31.8 µM; in [7], > 42.3 µM. Besides, the “Ratio CC50/IC50” value in data set [4] is 15.19; in [8], >1. In addition, at Albumin, the Ka is given as 3.2203 ×10⁴ L/mol.
Turning to `Cc1cc2c(c(O)c1-c1c(C)cc3c(c1O)/C(=C/NC(C(=O)[O-])c1ccc(Cl)cc1)C(=O)C(O)=C3C(C)C)/C(=C/NC(C(=O)[O-])c1ccc(Cl)cc1)C(=O)C(O)=C2C(C)C.[Na+].[Na+]` (stereo not given), the figures for the IC50 (in data set [1] (setting [14]); in the data set with Influenza A virus) were 1.28 µM and 21.5 µM, respectively. The CC50 in data set [3] is 21.9 µM; in [7] it was > 37.2 µM. In addition, the “Ratio CC50/IC50” value is given as 17.12 in [4] and >1.73 in [8]. On Albumin, this compound came in with a Ka of 1.2868 ×10⁴ L/mol.
Take `Cc1cc2c(C(C)C)c(O)c(O)c(C=O)c2c(O)c1-c1c(C)cc2c(C(C)C)c(O)c(O)c(C=O)c2c1O` [GOSSYPOL]: the IC50 entry in data set [1] (tzm-bl) is “Not Active”. The CC50 worked out at 9.76 µM in [3] and 3.53 µM in [7]. For the same compound, the Ka on Albumin came out at 2.3906 ×10⁵ L/mol. In addition, the values for the inhibition in data set [10], in data set [11] and in data set [13] were 73.2%, 76.3% and “Dose-dependent effect”, respectively. The inhibition result in [12] is “inactive”.
Consider `Cc1cc2c(c(O)c1-c1c(C)cc3c(c1O)/C(=C/NCCS(=O)(=O)[O-])C(=O)C(O)=C3C(C)C)/C(=C/NCCS(=O)(=O)[O-])C(=O)C(O)=C2C(C)C.[Na+].[Na+]` [MEGOSIN], for which the IC50 in data set [1] (setting [14]) amounted to 1.24 µM; in the data set on Influenza A virus, 8.59 µM. Further, the CC50 in data set [3] was 53.4 µM; in data set [7], > 43 µM. Moreover, the figures for the “Ratio CC50/IC50” value in [4] and in data set [8] were 43.03 and >5, respectively. The compound also came in with a Ka on Albumin of 1.7559 ×10⁴ L/mol.
Consider `Cc1cc2c(c(O)c1-c1c(C)cc3c(c1O)/C(=C/NC(C)(C)C(=O)[O-])C(=O)C(O)=C3C(C)C)/C(=C/NC(C)(C)C(=O)[O-])C(=O)C(O)=C2C(C)C.[Na+].[Na+]`, for which the IC50 in [1] (setting [14]) is 1.39 µM; with Influenza A virus it was 1.05 µM. In addition, the CC50 in [3] is 99 µM; in data set [7] it was > 45.5 µM. For the same compound, the “Ratio CC50/IC50” value is reported as 71.19 in [4] and >43.37 in data set [8]. On Albumin, this compound showed a Ka of 1.9125 ×10⁵ L/mol. For the same compound, the inhibition entry in data set [5] is “Active”. For the same compound, the inhibition entry in [6] was “inactive”.
Turning to `Cc1cc2c(C(C)C)c(O)c(O)c(/C=N/[C@@H](Cc3ccccc3)C(=O)[O-])c2c(O)c1-c1c(C)cc2c(C(C)C)c(O)c(O)c(/C=N/[C@@H](Cc3ccccc3)C(=O)[O-])c2c1O.[Na+].[Na+]`, the IC50 came out at 1.77 µM in data set [1] (setting [14]) and 7.79 µM in the data set with Influenza A virus. Further, the CC50 in data set [3] was 57.1 µM; in data set [7], > 38.9 µM. The “Ratio CC50/IC50” value in data set [4] is reported as 32.27; in data set [8], >5. In addition, the Ka at Albumin is 1.2835 ×10⁵ L/mol.
Take `CC[C@H](C)[C@H](N/C=C1\C(=O)C(O)=C(C(C)C)c2cc(C)c(-c3c(C)cc4c(c3O)/C(=C/N[C@H](C(=O)[O-])[C@@H](C)CC)C(=O)C(O)=C4C(C)C)c(O)c21)C(=O)[O-].[Na+].[Na+]`: the figures for the IC50 (in data set [1] (setting [14]); in the data set with Influenza A virus) were 1.12 µM and 0.34 µM, respectively. Further, the CC50 was 64.5 µM in data set [3] and > 42.3 µM in [7]. The “Ratio CC50/IC50” value is 57.57 in [4] and >124.41 in data set [8]. The compound further yielded a Ka at Albumin of 5.3223 ×10⁴ L/mol. For the same compound, the inhibition result in data set [5] was “Active”. Besides, the inhibition entry in data set [6] and in [9] was “inactive” throughout.
On to enfuvirtide, for which the IC50 in data set [1] (setting [14]) was determined as 0.0988 µM. Moreover, in [5], the inhibition result was “Active”. Further, the inhibition result in data set [6] was “inactive”.

Source of the values: ChEMBL document CHEMBL1949531, “Synthesis and antiviral activities of novel gossypol derivatives” (Bioorg Med Chem Lett, 2012).
